Assay: xn = mol fraction of the nth substance listed
Settings: 101.3 kPa

O=C([O-])CC(O)(CC(=O)[O-])C(=O)[O-].[K+].[K+].[K+] + CCOS(=O)(=O)[O-].CC[n+]1ccn(C)c1 + O
viscosity [mPa·s]
Settings	293.15 K	298.15 K	303.15 K	308.15 K	313.15 K
x1 = 0.0001822, x2 = 0.001795	1.082	0.969	0.854	0.76	0.688
x1 = 0.0001842, x2 = 0.002697	1.117	0.997	0.886	0.798	0.719
x1 = 0.0001964, x2 = 0	1.012	0.9	0.806	0.73	0.654
x1 = 0.0002632, x2 = 0.003588	1.149	1.029	0.912	0.824	0.74
x1 = 0.0005421, x2 = 0	1.019	0.907	0.813	0.737	0.661
x1 = 0.0005539, x2 = 0.001794	1.091	0.978	0.863	0.769	0.697
x1 = 0.0005561, x2 = 0.002696	1.127	1.007	0.896	0.808	0.729
x1 = 0.0005675, x2 = 0.003587	1.157	1.037	0.921	0.832	0.749
x1 = 0.0008894, x2 = 0	1.026	0.914	0.82	0.744	0.668
x1 = 0.0009179, x2 = 0.001794	1.099	0.986	0.871	0.776	0.704
x1 = 0.0009314, x2 = 0.002695	1.135	1.015	0.904	0.816	0.737
x1 = 0.0009355, x2 = 0.003586	1.166	1.046	0.929	0.841	0.757
x1 = 0.00126, x2 = 0	1.032	0.92	0.826	0.75	0.674
x1 = 0.001287, x2 = 0.001793	1.106	0.993	0.878	0.783	0.712
x1 = 0.001299, x2 = 0.002694	1.143	1.023	0.912	0.824	0.745
x1 = 0.001316, x2 = 0.003585	1.174	1.054	0.937	0.849	0.765
x1 = 0.001616, x2 = 0	1.038	0.926	0.832	0.756	0.68
x1 = 0.001647, x2 = 0.001792	1.113	1	0.884	0.79	0.719
x1 = 0.001665, x2 = 0.002693	1.15	1.03	0.92	0.831	0.753
x1 = 0.001686, x2 = 0.003583	1.181	1.061	0.944	0.856	0.773
x1 = 0.001985, x2 = 0	1.044	0.932	0.838	0.762	0.686
x1 = 0.002026, x2 = 0.002692	1.158	1.038	0.926	0.839	0.759
x1 = 0.002032, x2 = 0.001792	1.12	1.007	0.892	0.798	0.725
x1 = 0.002072, x2 = 0.003582	1.19	1.07	0.954	0.865	0.78

From the CheMixHub ionic liquid set
